ChEMBL document CHEMBL5532675, “Discovery of 4-Ethoxy-6-chloro-5-azaindazoles as Novel PDE4 Inhibitors for the Treatment of Alcohol Use Disorder and Alcoholic Liver Diseases” (J Med Chem, 2024)

Tests used:
[1] = target: T1, 3',5'-cyclic-AMP phosphodiesterase 4D (Homo sapiens, UniProt Q08499); assay: Inhibition of PDE4D7 (unknown origin) using FAM-cyclic-3',5'-AMP as substrate at 10 nM incubated for 1 hrs by fluorescence polarization based IMAP assay relative to control
[2] = target: T1, 3',5'-cyclic-AMP phosphodiesterase 4D; assay: Inhibition of PDE4D7 (unknown origin) using FAM-cyclic-3',5'-AMP as substrate at 100 nM incubated for 1 hrs by fluorescence polarization based IMAP assay relative to control

T1 sequence (Q08499 whole entry): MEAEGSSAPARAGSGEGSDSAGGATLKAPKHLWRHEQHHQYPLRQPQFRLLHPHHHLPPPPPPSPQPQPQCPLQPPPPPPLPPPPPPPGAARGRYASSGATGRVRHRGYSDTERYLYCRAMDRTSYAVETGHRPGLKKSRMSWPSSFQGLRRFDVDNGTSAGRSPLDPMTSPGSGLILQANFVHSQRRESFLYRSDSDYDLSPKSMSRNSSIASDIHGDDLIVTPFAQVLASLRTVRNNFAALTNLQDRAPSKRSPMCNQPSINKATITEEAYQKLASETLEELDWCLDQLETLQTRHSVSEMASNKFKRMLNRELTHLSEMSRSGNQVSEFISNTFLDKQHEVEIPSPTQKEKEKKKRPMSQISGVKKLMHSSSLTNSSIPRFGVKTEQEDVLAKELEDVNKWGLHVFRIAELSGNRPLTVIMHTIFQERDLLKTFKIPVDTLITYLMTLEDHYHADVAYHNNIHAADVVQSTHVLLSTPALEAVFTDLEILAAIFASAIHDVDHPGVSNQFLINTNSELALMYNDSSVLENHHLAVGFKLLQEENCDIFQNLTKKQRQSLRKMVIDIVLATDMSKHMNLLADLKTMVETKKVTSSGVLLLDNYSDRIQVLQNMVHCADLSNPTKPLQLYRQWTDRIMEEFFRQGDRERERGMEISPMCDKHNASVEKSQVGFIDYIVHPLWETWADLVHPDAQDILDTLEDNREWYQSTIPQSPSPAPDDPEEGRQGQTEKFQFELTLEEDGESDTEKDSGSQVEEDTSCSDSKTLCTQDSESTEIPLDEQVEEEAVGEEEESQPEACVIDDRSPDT

| inhibition [1] [%] | inhibition [2] [%] | Structure (SMILES) |
| --- | --- | --- |
| 4 | 4 | CCOc1nc(Cl)cc2c1cnn2CC(=O)NC |
|  | 7 | CCOc1nc(Cl)cc2c1cnn2CC1(C)COC1 |
| 3 | 3 | CCOc1nc(Cl)cc2c1cnn2CC(N)=O |
| 3 | 3 | CCOc1nc(Cl)cc2c1cnn2CC(=O)O |
|  | 4 | CCOc1nc(Cl)cc2c1cnn2CC1CCCO1 (stereo not drawn) |
| 4 | 6 | CCOc1nc(Cl)cc2c1cnn2CC(=O)NOC |
|  | 5 | CCOc1nc(Cl)cc2c1cnn2C1CCSCC1 |
|  | 5 | CCOc1nc(C)cc2c1cnn2C1CCOCC1 |
| 9 | 18 | CCOc1nc(Cl)cc2c1cnn2CCC(=O)NO |
| 3 | 4 | CCOc1nc(Cl)cc2c1cnn2CCO |
| 3 | 5 | CCOc1nc(Cl)cc2c1cnn2CC#N |
|  | 1 | CCOc1nccc2c1cnn2C1CCOCC1 |
|  | 3 | CCOc1nc(Cl)cc2c1cnn2C1CCS(=O)(=O)CC1 |
|  | 9 | CCOc1nc(Cl)cc2c1cnn2CC1CCOC1 (stereo not drawn) |

The next lines start with the compound.

| Structure (SMILES) | inhibition [1] [%] | inhibition [2] [%] |
| --- | --- | --- |
| CCOc1nc(Cl)cc2c1cnn2-c1ccc(OC)cc1 |  | 5 |
| CCOc1nc(Cl)cc2c1cnn2Cc1cccnc1 |  | 5 |
| CCOc1nc(Cl)cc2nn(CCO)cc12 | 6 | 5 |
| CCOc1nc(Cl)cc2nn(CC3CCCO3)cc12 (stereo not drawn) |  | 10 |
| CCOc1nc(Cl)cc2c1c(-c1ccncc1)nn2CCCC(=O)O | 5 | 24 |
| CCOc1nc(Cl)cc2nn(CCCCO)cc12 | 4 | 3 |
| CCOc1nc(Cl)cc2c1cnn2CCCC(=O)NO | 5 | 19 |
| CCOc1nc(Cl)cc2c1c(C)nn2CCCC(=O)O | 6 | 11 |
| CCOc1nc(Cl)cc2c1cnn2CCC(=O)O | 8 | 19 |
| CCOc1nc(Cl)cc2c1cnn2CCCO | 5 | 8 |
| CCOc1nc(Cl)cc2c1c(NCC(C)C)nn2CCCC(=O)O | 6 | 27 |
| CCOc1nc(Cl)cc2c1c(C1CC1)nn2CCCC(=O)O | 8 | 13 |
| CCOc1nc(Cl)cc2c1c(-c1cccc(OC)c1)nn2CCCC(=O)O | 3 | 6 |
| CCOc1nc(Cl)cc2c1cnn2CCCCO | 5 | 6 |
| CCOc1nc(Cl)cc2nn(CC(=O)O)cc12 | 5 | 7 |
| CCOc1nc(Cl)cc2c1c(Nc1ccccc1)nn2CCCC(=O)O | 7 | 9 |
| CCOc1nc(Cl)cc2c1c(C(F)(F)F)nn2CCCC(=O)O | 23 | 53 |
| CCOc1nc(Cl)cc2c1cnn2-c1cccc(OC)c1 |  | 7 |
| CCOc1nc(Cl)cc2c1c(C1CCCCC1)nn2CCCC(=O)O | 6 | 11 |
| CCOc1nc(Cl)cc2c1cnn2CC(=O)N(C)O | 5 | 8 |
| CNc1nc(Cl)cc2nn(C3CCOCC3)cc12 |  | 17 |
| CCOc1nc(Cl)cc2c1c(NCc1ccccc1)nn2CCCC(=O)O | 4 | 18 |
| CCOc1nc(Cl)cc2c1c(-c1ccc(OC)cc1)nn2CCCC(=O)O | 7 | 16 |
| CCOc1nc(Cl)cc2c1c(/C=C/c1ccc(OC)cc1)nn2CCCC(=O)O | 2 | 5 |
| CCOc1nc(Cl)cc2c1c(-c1cccnc1)nn2CCCC(=O)O | 4 | 9 |
| CCOc1nc(Cl)cc2c1cnn2C(C)c1ccc(C(F)(F)F)cc1 (stereo not drawn) |  | 14 |
| CCOc1nc(Cl)cc2nn(C3CCOCC3)cc12 |  | 35 |
| CCOc1nc(Cl)cc2nn(-c3cccc(OC)c3)cc12 |  | 8 |
| CCOc1nc(Cl)cc2nn(CCCC(=O)O)cc12 | 6 | 8 |
| CCOc1nc(Cl)cc2c1c(CC)nn2CCCC(=O)O | 15 | 48 |
